Source: article PMC3969223, “Characterization of WZ4003 and HTH-01-015 as selective inhibitors of the LKB1-tumour-suppressor-activated NUAK kinases” (Biochemical Journal, 2013)
Values joined by “and” are separate entries in the source; they are usually repeats but may differ in a detail not shown here. Equal entries are not always repeated.

What was measured:
[1] = target: T1, NUAK1[A195T] (Homo sapiens, UniProt O60285, A195T); assay: GST–NUAK1[A195T] Sakamototide peptide kinase assay; format: biochemical; conditions: for IC50: 200 μM Sakamototide, 100 μM [γ-32P]ATP; for Reduction of potency (resistance) by the NUAK1 A195T mutation: NUAK1[A195T] versus wild-type NUAK1
T1 construct: made in house; host or cells: HEK-293 cells, transient transfection of pEBG2T construct
T1 sequence (O60285 1-661 A195T): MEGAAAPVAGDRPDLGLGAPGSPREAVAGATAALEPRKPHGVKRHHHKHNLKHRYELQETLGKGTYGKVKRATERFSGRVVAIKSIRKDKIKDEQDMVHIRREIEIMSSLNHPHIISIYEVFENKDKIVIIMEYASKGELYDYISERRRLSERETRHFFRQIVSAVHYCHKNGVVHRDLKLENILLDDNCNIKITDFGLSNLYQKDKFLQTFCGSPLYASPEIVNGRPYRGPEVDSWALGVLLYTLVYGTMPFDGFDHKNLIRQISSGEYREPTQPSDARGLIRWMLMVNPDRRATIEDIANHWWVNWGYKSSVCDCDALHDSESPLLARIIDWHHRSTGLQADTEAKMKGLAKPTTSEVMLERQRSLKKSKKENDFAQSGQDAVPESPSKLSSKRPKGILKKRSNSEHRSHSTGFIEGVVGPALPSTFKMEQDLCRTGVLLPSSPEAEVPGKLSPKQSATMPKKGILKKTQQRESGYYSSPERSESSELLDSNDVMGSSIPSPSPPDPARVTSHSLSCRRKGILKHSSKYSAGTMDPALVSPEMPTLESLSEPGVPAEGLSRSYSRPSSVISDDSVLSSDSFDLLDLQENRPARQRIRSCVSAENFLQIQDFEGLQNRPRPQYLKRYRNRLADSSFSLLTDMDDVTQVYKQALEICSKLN
Description: Active GST–NUAK1, GST–NUAK1[A195T] and GST–NUAK2 enzymes were purified using glutathione–Sepharose from HEK-293 cell lysates 36–48 h following the transient transfection of pEBG2T mammalian constructs expressing N-terminal GST-tagged NUAK1, NUAK1[A195T] or NUAK2. For peptide kinase assays, 96-well plates were used, and each reaction was performed in triplicate. Each reaction was set up in a total volume of 50 μl containing 100 ng of NUAK1 (wild-type or A195T mutant) or NUAK2 in 50 mM Tris/HCl (pH 7.5), 0.1 mM EGTA, 10 mM magnesium acetate, 200 μM Sakamototide, 0.1 mM [γ-^32P]ATP (450–500 c.p.m./pmol) and the indicated concentrations of inhibitors dissolved in DMSO. After incubation for 30 min at 30°C, reactions were terminated by adding 25 mM (final) EDTA to chelate the magnesium. Then, 40 μl of the reaction mix was spotted on to P81 paper and immersed in 50 mM orthophosphoric acid. Samples were washed three times in 50 mM orthophosphoric acid followed by a single acetone rinse and air drying. The incorporation of [γ-^32P]ATP into Sakamototide was quantified by Cerenkov counting. The values were expressed as a percentage of the DMSO control. IC50 curves were developed and IC50 values were calculated using GraphPad Prism software.

[2] = tested on: panel of 140 protein kinases; assay: Protein kinase profiling, whole panel; format: biochemical; conditions: 1 μM, panel of 140 kinases
Description: Kinase inhibitor specificity profiling assays were carried out at The International Centre for Protein Kinase Profiling (http://www.kinase-screen.mrc.ac.uk/) against a panel of 140 protein kinases as described previously. Results are presented as a percentage of kinase activity in DMSO control reactions. Protein kinases were assayed in vitro with 0.1 or 1 μM of the inhibitors and the results are presented as an average of triplicate reactions±S.D. or in the form of comparative histograms.

[3] = tested on: MYPT1 Ser445 phosphorylation; assay: MYPT1 Ser445 phosphorylation on EDTA-induced detachment, HEK-293; format: cell-based, human; conditions: HEK-293, 16 h; for Suppression of MYPT1 Ser445 phosphorylation (in words): HTH-01-015 at 10 μM
Description: HEK (human embryonic kidney)-293 and U2OS cells were cultured in DMEM (Dulbecco's modified Eagle's medium) supplemented with 10% FBS, 2 mM glutamine and 1×antibacterial/antimycotic solution. NUAK1^+/+ and NUAK1^−/− MEFs were cultured in DMEM supplemented with 10% (v/v) FBS and 2 mM glutamine, 1×antibacterial/antimycotic solution, 1% (v/v) non-essential amino acids and 1% (v/v) sodium pyruvate. HEK-293 Flp/In T-Rex cell lines were cultured in DMEM supplemented with 10% (v/v) FBS and 2 mM glutamine, 1×antibacterial/antimycotic solution, 100 μg/ml hygromycin and 15 μg/ml blasticidin. Supplementing the culture medium with 0.1 μg/ml doxycycline for 16–24 h induced protein expression in the HEK-293 Flp/In T-Rex cells. Cell counting was carried out using Invitrogen Countess following the manufacturer's protocol. A cell-detachment assay was carried out on HEK-293 cells using PBS-EDTA-based cell dissociation buffer as described previously. An inhibitor dose-dependence assay was carried out by treating the cells with various concentrations of the inhibitors as indicated in the Figure legends. The inhibitors were dissolved in DMSO and the total concentration of DMSO in the culture media never exceeded 1%. Transient transfections of HEK-293 cells were carried out using PEI [24]. Stable transfections were carried out in HEK-293 Flp/In T-Rex cells (Invitrogen) following the manufacturer's protocol. Lentivirus-mediated knock down of NUAK1 was carried out in U2OS cells using shRNA constructs as described previously. Post-treatment and/or transfection, cells were lysed in lysis buffer containing 50 mM Tris/HCl (pH 7.5), 1 mM EGTA, 1 mM EDTA, 1% Triton X-100, 50 mM NaF, 10 mM sodium 2-glycerophosphate, 5 mM sodium pyrophosphate, 1 mM sodium orthovanadate, 0.27 M sucrose, 1 mM benzamidine (added before lysis), 1 mM PMSF (added before lysis) and 0.1% 2-mercaptoethanol (added before lysis). Lysates were clarified by centrifugation at 16000 g for 15 min at 4°C and either used for further experiments or snap-frozen in liquid nitrogen and stored at −80°C. Protein estimation was carried out using the Bradford method with BSA as a standard.
Figure 5 HTH-01-015 and WZ4003 inhibit MYPT1 Ser^445 phosphorylation in vivo (A) HEK-293 cells were treated in the absence (DMSO) or presence of the indicated concentrations of WZ4003 over 16 h. Cell medium was then replaced with either normal DMEM containing no EDTA-PBS-based cell dissociation buffer (−) or EDTA-PBS-based cell dissociation buffer (+) containing the same concentration of WZ4003 that the cells were previously incubated in. Cell detachment was induced with gentle tapping of the plates followed by gentle centrifugation at 70 g for 3 min. Cells were lysed immediately after removal of the supernatant. Endogenous MYPT1 was immunoprecipitated from 0.5 mg of the cell lysates. The immunoprecipitates were immunoblotted for the detection of p-Ser^445 MYPT1 and total MYPT1. The cell lysates were subjected to immunoblotting for the detection of p-Ser^79 ACC and total ACC. Similar results were obtained in three separate experiments. (B) As in (A) except for the HTH-01-015 inhibitor was used. (C–F) As above except that HEK-293 Flp/In T-Rex cells stably expressing the indicated wild-type HA-tagged NUAK1 or drug-resistant HA-tagged NUAK1[A195T] were used. Similar results were obtained in three separate experiments for all data shown on this Figure.

Compound | IC50 [1] [nM] | Reduction of potency (resistance) by the NUAK1 A195T mutation [1] | Selectivity over the other kinases of the panel (in words) [2] | Inhibitor concentration for maximal suppression of MYPT1 Ser445 phosphorylation [3] [µM] | Suppression of MYPT1 Ser445 phosphorylation (in words) [3]
Cc1nc(Nc2cnn(C3CCNCC3)c2)nc2c1N(C)C(=O)c1cc3ccccc3cc1N2C [HTH-01-015] | 5890 | ~ 50 fold and ~ 60 fold | did not markedly suppress | 3 to 10 | only led to a partial inhibition
CCC(=O)Nc1cccc(Oc2nc(Nc3ccc(N4CCN(C)CC4)cc3OC)ncc2Cl)c1 [WZ4003] | 900 | ~ 50 fold and 45 fold | did not significantly inhibit | 3 to 10 | suppressed MYPT1 phosphorylation in a dose-dependent manner
CN1C(=O)c2ccccc2N(C)c2nc(Nc3cnn(C4CCNCC4)c3)ncc21 [XMD-17-51] | 600 | > 50 fold | less selective | – | only partially suppressed
CN1C(=O)c2cc3ccccc3cc2N(C)c2nc(Nc3cnn(C4CCNCC4)c3)ncc21 [XMD-18-42] | 1500 | > 50 fold | less selective | – | only partially suppressed
